# Laboratory results as given in ChEMBL document CHEMBL1154854, “Synthesis and antioxidant properties of enone core based dendrimers with carbazole as surface group” (Eur J Med Chem, 2010).
# The source made the active and inactive calls. The calls are words filed in the database; no cut-off is given here.
# Assays:
# [1] = tested on: Radical scavenging activity; assay: Antioxidant activity assessed as DPPH radical scavenging activity after 30 mins by spectrometric assay method; format: functional
# [2] = tested on: Radical scavenging activity; assay: Antioxidant activity assessed as DPPH radical scavenging activity at 20 to 1000 ug/mL after 30 mins by spectrometric assay method; format: functional
SMILES,IC50 [1] [µg/mL],Activity [2],Activity [1]
O=C1/C(=C/c2ccc(OCc3cc(OCc4cc(OCc5ccc(-n6c7ccccc7c7ccccc76)cc5)cc(OCc5ccc(-n6c7ccccc7c7ccccc76)cc5)c4)cc(OCc4cc(OCc5ccc(-n6c7ccccc7c7ccccc76)cc5)cc(OCc5ccc(-n6c7ccccc7c7ccccc76)cc5)c4)c3)cc2)CCC/C1=C\c1ccc(OCc2cc(OCc3cc(OCc4ccc(-n5c6ccccc6c6ccccc65)cc4)cc(OCc4ccc(-n5c6ccccc6c6ccccc65)cc4)c3)cc(OCc3cc(OCc4ccc(-n5c6ccccc6c6ccccc65)cc4)cc(OCc4ccc(-n5c6ccccc6c6ccccc65)cc4)c3)c2)cc1,48,Active,–
O=C1/C(=C/c2ccc(OCc3cc(OCc4ccc(-n5c6ccccc6c6ccccc65)cc4)cc(OCc4ccc(-n5c6ccccc6c6ccccc65)cc4)c3)cc2)CCC/C1=C\c1ccc(OCc2cc(OCc3ccc(-n4c5ccccc5c5ccccc54)cc3)cc(OCc3ccc(-n4c5ccccc5c5ccccc54)cc3)c2)cc1,–,–,Dose-dependent effect
Cc1c(C)c2c(c(C)c1O)CC[C@@](C)(CCC[C@H](C)CCC[C@H](C)CCCC(C)C)O2 [ALPHA-TOCOPHEROL],25,–,–
O=C1O[C@H]([C@@H](O)CO)C(O)=C1O [ASCORBIC ACID],48,–,–
COc1ccc(O)c(C(C)(C)C)c1.COc1ccc(O)cc1C(C)(C)C [BUTYLATED HYDROXYANISOLE],29,–,–
